According to patent publication US20080076703A1, “Compositions and methods for the enhanced uptake of therapeutic agents through the bladder epithelium” (Cell Genesys, Inc., priority 2003, published 2008):

Legend:
[1] = system: urothelium (GAG layer, tight junctions); test: Electron Microscopy of the DDM pretreated bladder; assay type: in vivo
bladder tissue = settings: after DDM pretreatment; cited from earlier work
murine bladders [2] = test: Oregon Green 488 Paclitaxel uptake in bladder after intravesical instillation (fluorescence microscopy of bladder sections); assay type: in vivo, Balb/c mice; settings: DDM pretreatment 5 min; Oregon Green 488 Paclitaxel 5 μg instilled, retained 15 min
Procedure: (§1) Female Balb/c mice were used due to the ease of urethral cannulation and intravesical instillation. All animals were housed according to institutional regulations for experimental animals. Balb/c mice (20 gm body weight) were anesthetized with Isoflurane, and a 24-gauge catheter was introduced through the urethra into the bladder. The residual urine was emptied and the bladder was flushed three times with 100 μL of PBS employing a 25-gauge needle inserted into the external end of the catheter. […]
(§2) 70 μL of the solution was intravesically instilled in the bladder and retained for 15 min after which the bladder was washed 3 times with 100 μL each of PBS. […] Triplicate samples were adjusted to 2.00 mL with 0.2 M carbonate buffer (pH=9.34) and spectrophotometric emission was measured at 538 nm following excitation at 485 nm. […]
On examination of the histological sections of the bladder that had been pretreated with PBS followed by the intravesical retention of Paclitaxel, it was observed that there were very small patchy areas of non-specifically bound drug on the luminal surface of the bladder (FIGS. 1A-1C). Most of the bladder surface was devoid of any fluorescence that indicated the absence of any entry of the drug into the bladder tissue. […]

Mouse bladders = test: Systemic uptake of intravesically instilled sodium fluorescein (serum fluorescence); assay type: in vivo, Balb/c mice; settings: 0.1% DDM pretreatment 5 min, 0.1% sodium fluorescein instilled, retained 15 min
Procedure: as §1, §2
Fluorescein has been used to measure alterations in bladder permeability after bladder mucosal injury in mice [Eichel, L. et al., (2001) Urology. […] Following 3× wash of the bladder with PBS, blood was removed from the mice via cardiac puncture and the serum was analyzed for systemic distribution of intravesically instilled sodium fluorescein as described above. […]

murine bladders [3] = test: FITC-LC-TAT peptide uptake in bladder after intravesical instillation (fluorescence microscopy of bladder sections); assay type: in vivo, Balb/c mice; settings: 0.1% DDM pretreatment; 5 μg FITC-LC-TAT instilled, retained 15 min
Procedure: as §1, with “catheter. After washing, bladder pretreatment was performed employing the various test reagents as follows: the pretreatment reagent (DDM) was diluted to the desired concentration in PBS, and the bladder was quickly rinsed twice with 100 μL each of the reagent. After the rinsing steps, 100 μL of the pretreatment reagent was introduced via the catheter and retained in the bladder for 5 minutes, followed by an additional quick rinse with the pretreatment reagent. The bladder was then washed three times with 100 μL each of PBS.” for “catheter.”
as §2

Compound: CCCCCCCCCCCCO[C@@H]1O[C@H](CO)[C@@H](O[C@H]2O[C@H](CO)[C@@H](O)[C@H](O)[C@H]2O)[C@H](O)[C@H]1O [DDM, n-dodecyl-β-D-maltoside]
- GAG layer on the urothelium (electron microscopy) [1]: absent
- tight junctions along the surface (electron microscopy) [1]: Disruption of tight junctions
- penetration of adenovirus particles (70 nm to 100 nm) into bladder tissue (bladder tissue): able to penetrate the bladder tissue
- uptake of Paclitaxel into bladder tissue (fluorescence) (murine bladders [2]): significant uptake
- increase in the circulating levels of fluorescein as compared to PBS pretreatment (Mouse bladders): 5-10 ×
- FITC-LC-TAT fluorescent signal in epithelial layer on luminal surface of bladder (murine bladders [3]): distinct signal
